Measured values: ChEMBL document CHEMBL5724806, “Unraveling interindividual differences and functional consequences of gut microbial metabolism of immunosuppressants” (2024)

Tests used:
Assay type in all cases: ADME
[1] = (§1) The drug is tested on the gut metagenome community of T-01 with ENA study accession number: PRJEB31790 for biotransformation under microaerobic condition. The drug concentrations were measured over 7 timepoints collected between 0 and 12 hours of incubation by liquid-chromatography-coupled mass spectrometry (LC–MS); set-up: dose 5 uM, timepoint 0, 0.75, 1.5, 3, 6, 9, 12 hours; settings: 5 µM
[2] = The drug is tested on Bifidobacterium longum strain: DSM20088 for biotransformation under anaerobic condition. The drug concentrations were measured over 6 timepoints collected between 0 and 12 hours of incubation by liquid-chromatography-coupled mass spectrometry (LC–MS); set-up: dose 5 uM, timepoint 0, 1.5, 3, 6, 9, 12 hours; settings: 5 µM
[3] = as §1, with “A-09” for “T-01”; set-up: dose 5 uM, timepoint 0, 0.75, 1.5, 3, 6, 9, 12 hours; settings: 5 µM
[4] = The drug is tested on Gemella haemolysans strain: DSM107751 for biotransformation under microaerobic condition. The drug concentrations were measured over 6 timepoints collected between 0 and 12 hours of incubation by liquid-chromatography-coupled mass spectrometry (LC–MS); set-up: dose 5 uM, timepoint 0, 1.5, 3, 6, 9, 12 hours; settings: 5 µM
[5] = The drug is tested on Lactobacillus paracasei strain: ATCC27092 for biotransformation under microaerobic condition. The drug concentrations were measured over 6 timepoints collected between 0 and 12 hours of incubation by liquid-chromatography-coupled mass spectrometry (LC–MS); set-up: dose 5 uM, timepoint 0, 1.5, 3, 6, 9, 12 hours; settings: lacticaseibacillus paracasei, 5 µM
[6] = The drug is tested on Bacteroides fragilis strain: DSM2151 for biotransformation under anaerobic condition. The drug concentrations were measured over 6 timepoints collected between 0 and 12 hours of incubation by liquid-chromatography-coupled mass spectrometry (LC–MS); set-up: dose 5 uM, timepoint 0, 1.5, 3, 6, 9, 12 hours; settings: 5 µM
[7] = The drug is tested on Streptococcus salivarius strain: DSM20560 for biotransformation under microaerobic condition. The drug concentrations were measured over 6 timepoints collected between 0 and 12 hours of incubation by liquid-chromatography-coupled mass spectrometry (LC–MS); set-up: dose 5 uM, timepoint 0, 1.5, 3, 6, 9, 12 hours; settings: 5 µM
[8] = as §1, with “P-04” for “T-01”, “anaerobic” for “microaerobic”; set-up: dose 5 uM, timepoint 0, 0.75, 1.5, 3, 6, 9, 12 hours; settings: 5 µM
[9] = as §1, with “P-03” for “T-01”; set-up: dose 5 uM, timepoint 0, 0.75, 1.5, 3, 6, 9, 12 hours; settings: 5 µM
[10] = The drug is tested on Bifidobacterium adolescentis strain: DSM20083 for biotransformation under anaerobic condition. The drug concentrations were measured over 6 timepoints collected between 0 and 12 hours of incubation by liquid-chromatography-coupled mass spectrometry (LC–MS); set-up: dose 5 uM, timepoint 0, 1.5, 3, 6, 9, 12 hours; settings: 5 µM
[11] = as §1, with “A-07” for “T-01”; set-up: dose 5 uM, timepoint 0, 0.75, 1.5, 3, 6, 9, 12 hours; settings: 5 µM
[12] = The drug is tested on Streptococcus salivarius strain: DSM20560 for biotransformation under anaerobic condition. The drug concentrations were measured over 6 timepoints collected between 0 and 12 hours of incubation by liquid-chromatography-coupled mass spectrometry (LC–MS); set-up: dose 5 uM, timepoint 0, 1.5, 3, 6, 9, 12 hours; settings: 5 µM
[13] = as §1, with “A-04” for “T-01”; set-up: dose 5 uM, timepoint 0, 0.75, 1.5, 3, 6, 9, 12 hours; settings: 5 µM
[14] = The drug is tested on Bacteroides stercoris strain: HM 1036 for biotransformation under anaerobic condition. The drug concentrations were measured over 6 timepoints collected between 0 and 12 hours of incubation by liquid-chromatography-coupled mass spectrometry (LC–MS); set-up: dose 5 uM, timepoint 0, 1.5, 3, 6, 9, 12 hours; settings: 5 µM
[15] = as §1, with “anaerobic” for “microaerobic”; set-up: dose 5 uM, timepoint 0, 0.75, 1.5, 3, 6, 9, 12 hours; settings: 5 µM
[16] = The drug is tested on Ruminococcus gnavus strain: ATCC29149 for biotransformation under anaerobic condition. The drug concentrations were measured over 6 timepoints collected between 0 and 12 hours of incubation by liquid-chromatography-coupled mass spectrometry (LC–MS); set-up: dose 5 uM, timepoint 0, 1.5, 3, 6, 9, 12 hours; settings: mediterraneibacter gnavus, 5 µM
[17] = as §1, with “T-05” for “T-01”; set-up: dose 5 uM, timepoint 0, 0.75, 1.5, 3, 6, 9, 12 hours; settings: 5 µM
[18] = The drug is tested on Eubacterium eligens strain: DSM3376 for biotransformation under anaerobic condition. The drug concentrations were measured over 6 timepoints collected between 0 and 12 hours of incubation by liquid-chromatography-coupled mass spectrometry (LC–MS); set-up: dose 5 uM, timepoint 0, 1.5, 3, 6, 9, 12 hours; settings: lachnospira eligens, 5 µM
[19] = as §1, with “A-06” for “T-01”, “anaerobic” for “microaerobic”; set-up: dose 5 uM, timepoint 0, 0.75, 1.5, 3, 6, 9, 12 hours; settings: 5 µM
[20] = as §1, with “A-08” for “T-01”, “anaerobic” for “microaerobic”; set-up: dose 5 uM, timepoint 0, 0.75, 1.5, 3, 6, 9, 12 hours; settings: 5 µM
[21] = as §1, with “T-04” for “T-01”; set-up: dose 5 uM, timepoint 0, 0.75, 1.5, 3, 6, 9, 12 hours; settings: 5 µM
[22] = The drug is tested on Prevotella copri strain: DSM18205 for biotransformation under anaerobic condition. The drug concentrations were measured over 6 timepoints collected between 0 and 12 hours of incubation by liquid-chromatography-coupled mass spectrometry (LC–MS); set-up: dose 5 uM, timepoint 0, 1.5, 3, 6, 9, 12 hours; settings: segatella copri, 5 µM
[23] = as §1, with “T-02” for “T-01”; set-up: dose 5 uM, timepoint 0, 0.75, 1.5, 3, 6, 9, 12 hours; settings: 5 µM
[24] = as §1, with “A-05” for “T-01”; set-up: dose 5 uM, timepoint 0, 0.75, 1.5, 3, 6, 9, 12 hours; settings: 5 µM
[25] = The drug is tested on Actinomyces naeslundi strain: DSM43013 for biotransformation under microaerobic condition. The drug concentrations were measured over 6 timepoints collected between 0 and 12 hours of incubation by liquid-chromatography-coupled mass spectrometry (LC–MS); set-up: dose 5 uM, timepoint 0, 1.5, 3, 6, 9, 12 hours; settings: actinomyces naeslundii, 5 µM
[26] = The drug is tested on Eubacterium rectale strain: DSM17629 for biotransformation under anaerobic condition. The drug concentrations were measured over 6 timepoints collected between 0 and 12 hours of incubation by liquid-chromatography-coupled mass spectrometry (LC–MS); set-up: dose 5 uM, timepoint 0, 1.5, 3, 6, 9, 12 hours; settings: agathobacter rectalis, 5 µM
[27] = The drug is tested on Capnocytophaga ochracea strain: DSM7271 for biotransformation under microaerobic condition. The drug concentrations were measured over 6 timepoints collected between 0 and 12 hours of incubation by liquid-chromatography-coupled mass spectrometry (LC–MS); set-up: dose 5 uM, timepoint 0, 1.5, 3, 6, 9, 12 hours; settings: 5 µM
[28] = as §1, with “P-01” for “T-01”; set-up: dose 5 uM, timepoint 0, 0.75, 1.5, 3, 6, 9, 12 hours; settings: 5 µM
[29] = as §1, with “T-04” for “T-01”, “anaerobic” for “microaerobic”; set-up: dose 5 uM, timepoint 0, 0.75, 1.5, 3, 6, 9, 12 hours; settings: 5 µM
[30] = as §1, with “P-02” for “T-01”; set-up: dose 5 uM, timepoint 0, 0.75, 1.5, 3, 6, 9, 12 hours; settings: 5 µM
[31] = as §1, with “T-05” for “T-01”, “anaerobic” for “microaerobic”; set-up: dose 5 uM, timepoint 0, 0.75, 1.5, 3, 6, 9, 12 hours; settings: 5 µM

Bacterial Biotransformation [1]	Bacterial Biotransformation [2]	Bacterial Biotransformation [3]	Bacterial Biotransformation [5]	Bacterial Biotransformation [6]	Bacterial Biotransformation [7]	Bacterial Biotransformation [8]	Bacterial Biotransformation [9]	Bacterial Biotransformation [10]	Bacterial Biotransformation [11]	Bacterial Biotransformation [12]	Bacterial Biotransformation [13]	Bacterial Biotransformation [14]	Bacterial Biotransformation [15]	Bacterial Biotransformation [16]	Bacterial Biotransformation [17]	Bacterial Biotransformation [18]	Bacterial Biotransformation [19]	Bacterial Biotransformation [20]	SMILES	Bacterial Biotransformation [4]	further results
Compound metabolized	Compound NOT metabolized	Compound metabolized	Compound NOT metabolized	Compound NOT metabolized	Compound NOT metabolized	Compound NOT metabolized	Compound NOT metabolized	Compound NOT metabolized	Compound metabolized	Compound NOT metabolized	Compound NOT metabolized	Compound NOT metabolized	Compound NOT metabolized	Compound NOT metabolized	Compound NOT metabolized	Compound NOT metabolized	Compound metabolized	Compound NOT metabolized	C[C@@H]1C[C@H]2[C@@H]3CCC4=CC(=O)C=C[C@]4(C)[C@@]3(F)[C@@H](O)C[C@]2(C)[C@@]1(O)C(=O)CO [DEXAMETHASONE]	Compound NOT metabolized	Bacterial Biotransformation [21]: Compound NOT metabolized; Bacterial Biotransformation [22]: Compound NOT metabolized; Bacterial Biotransformation [23]: Compound metabolized; Bacterial Biotransformation [24]: Compound NOT metabolized; Bacterial Biotransformation [25]: Compound NOT metabolized; Bacterial Biotransformation [26]: Compound NOT metabolized; Bacterial Biotransformation [27]: Compound NOT metabolized; Bacterial Biotransformation [28]: Compound NOT metabolized; Bacterial Biotransformation [29]: Compound NOT metabolized; Bacterial Biotransformation [30]: Compound NOT metabolized; Bacterial Biotransformation [31]: Compound NOT metabolized
Compound metabolized	Compound NOT metabolized	Compound metabolized	Compound NOT metabolized	Compound NOT metabolized	Compound metabolized	Compound NOT metabolized	Compound metabolized	Compound NOT metabolized	Compound metabolized	Compound NOT metabolized	Compound metabolized	Compound NOT metabolized	Compound NOT metabolized	Compound NOT metabolized	Compound metabolized	Compound NOT metabolized	Compound metabolized	Compound metabolized	COc1ccc([C@@H]2Sc3ccccc3N(CCN(C)C)C(=O)[C@@H]2OC(C)=O)cc1 [DILTIAZEM]	Compound NOT metabolized	Bacterial Biotransformation [21]: Compound NOT metabolized; Bacterial Biotransformation [22]: Compound NOT metabolized; Bacterial Biotransformation [23]: Compound metabolized; Bacterial Biotransformation [24]: Compound metabolized; Bacterial Biotransformation [25]: Compound NOT metabolized; Bacterial Biotransformation [26]: Compound NOT metabolized; Bacterial Biotransformation [27]: Compound metabolized; Bacterial Biotransformation [28]: Compound metabolized; Bacterial Biotransformation [29]: Compound NOT metabolized; Bacterial Biotransformation [30]: Compound metabolized; Bacterial Biotransformation [31]: Compound NOT metabolized
Compound NOT metabolized	Compound NOT metabolized	Compound metabolized	Compound NOT metabolized	Compound NOT metabolized	Compound NOT metabolized	Compound NOT metabolized	Compound NOT metabolized	Compound NOT metabolized	Compound metabolized	Compound NOT metabolized	Compound metabolized	Compound NOT metabolized	Compound NOT metabolized	Compound NOT metabolized	Compound NOT metabolized	Compound NOT metabolized	Compound metabolized	Compound metabolized	CO[C@H]1C[C@@H]2CC[C@@H](C)[C@@](O)(O2)C(=O)C(=O)N2CCCC[C@H]2C(=O)O[C@H]([C@H](C)C[C@@H]2CC[C@@H](OCCO)[C@H](OC)C2)CC(=O)[C@H](C)/C=C(\C)[C@@H](O)[C@@H](OC)C(=O)[C@H](C)C[C@H](C)/C=C/C=C/C=C/1C [EVEROLIMUS]	Compound NOT metabolized	Bacterial Biotransformation [21]: Compound NOT metabolized; Bacterial Biotransformation [22]: Compound NOT metabolized; Bacterial Biotransformation [23]: Compound metabolized; Bacterial Biotransformation [24]: Compound metabolized; Bacterial Biotransformation [25]: Compound NOT metabolized; Bacterial Biotransformation [26]: Compound NOT metabolized; Bacterial Biotransformation [27]: Compound NOT metabolized; Bacterial Biotransformation [28]: Compound NOT metabolized; Bacterial Biotransformation [29]: Compound NOT metabolized; Bacterial Biotransformation [30]: Compound NOT metabolized; Bacterial Biotransformation [31]: Compound NOT metabolized
